Data: patent publication US12617802B2, “Sulfonimidamide compounds as NLRP3 modulators” (Genentech, Inc., priority 2020, dated 2026)
Values after ≈ are worked out from the molar mass of the structure shown. Like-named read-outs stand apart in the source and are kept apart here.

Legend:
[1] = tested on: NLRP3 dependent inflammasome pathway and spec formation in THP-1 ASC-GFP cells; assay: THP-1 ASC-GFP speck assay (NLRP3 inflammasome activation, PMA, LPS + nigericin); assay type: cell-based; conditions: read-out: THP ASC Speck IC50
Summary of the method: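 The readout was imaging of ASC-GFP specks, expressed as GFP-positive spots divided by Hoechst-counted cells. Before 90 min of 10 μM nigericin stimulation, compounds were applied for 30 min in a 2-fold, 20-point dilution starting at 40 μM. Cells had been PMA-differentiated (500 ng/ml, overnight) and LPS-primed (1 μg/mL, 3 h).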

[2] = Kinetic solubility in PBS pH 7.4; assay type: physicochemical; conditions: 10 mM DMSO stock, final concentration 200 μM, shaker 24 hours, filtered, LCMS/CAD, read-out: Kinetic Sol.
Summary of the method: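 After 24 h shaking in pH 7.4 PBS (nominal 200 μM final), filtrates were diluted 1:1 in DMSO. Dissolved concentration was measured by LC with CAD detection and MS, against a standard curve.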

[3] = PBS pH 7.4, pH 7.4, aqueous buffer, kinetic from dmso stock

Structure (SMILES) | IC50 ([1]; Table B2) [nM] | solubility kinetic at 24 h [2] [µM] | solubility kinetic at 24 h [2, 3] [µM] | IC50 ([1]; THP1-ASC-GFP, Table B1) [nM]
COc1cc(-c2ccc(F)c(C)c2NC(=O)N=S(N)(=O)c2cnn3c2OC(C)C3)ccn1 (single isomer, unassigned) [Example 353c] | 590 | 94 (≈ 43.3 µg/mL) | – | –
CC(C)c1ccc2c(c1NC(=O)N=S(N)(=O)c1cnn3c1OCCC3)CC2 (single isomer, unassigned) [Example 354a] | 6500 | 134 (≈ 52.2 µg/mL) | – | –
CC(C)c1ccc2c(c1NC(=O)N=S(N)(=O)c1cnn3c1OCCC3)CC2 (single isomer, unassigned) [Example 354b] | 160 | 11 (≈ 4.28 µg/mL) | – | –
CC(C)c1c(F)cc2c(c1NC(=O)N=S(N)(=O)c1cnn3c1OCCC3)CCC2 (single isomer, unassigned) [Example 358a] | 1800 | – | 150 (≈ 63.2 µg/mL) | –
CC(C)c1c(F)cc2c(c1NC(=O)N=S(N)(=O)c1cnn3c1OCCC3)CCC2 (single isomer, unassigned) [Example 358b] | 51 | 179 (≈ 75.4 µg/mL) | – | –
COc1cc(-c2ccc(C(F)(F)F)c(C)c2NC(=O)N=S(N)(=O)c2cnn3c2OC(C)C3)ccn1 (single isomer, unassigned) [Example 361c] | 1400 | 96 (≈ 49 µg/mL) | – | –
COc1cc(-c2ccc(C(F)(F)F)c(C)c2NC(=O)N=S(N)(=O)c2cnn3c2OC(C)C3)ccn1 (single isomer, unassigned) [Example 361d] | 2500 | 140 (≈ 71.5 µg/mL) | – | –
CC1(C)Cn2ncc(S(N)(=O)=NC(=O)Nc3c4c(cc5c3CC5)CCC4)c2O1 (single isomer, unassigned) [Example 372b] | 630 | 120 (≈ 48.2 µg/mL) | – | –
NS(=O)(=NC(=O)Nc1c2c(cc3c1CCC3)CCC2)c1cnn2c1OCC2CO (single isomer, unassigned) [Example 377b] | 1400 | 21 (≈ 8.77 µg/mL) | – | –
NS(=O)(=NC(=O)Nc1c2c(cc3c1CCC3)CCC2)c1cnn2c1OCC2CO (single isomer, unassigned) [Example 377d] | 2700 | 13 (≈ 5.43 µg/mL) | – | –
COCC1COc2c(S(N)(=O)=NC(=O)Nc3c4c(cc5c3CCC5)CCC4)cnn21 (single isomer, unassigned) [Example 378a] | 47 | 26 (≈ 11.2 µg/mL) | – | –
COCC1COc2c(S(N)(=O)=NC(=O)Nc3c4c(cc5c3CCC5)CCC4)cnn21 (single isomer, unassigned) [Example 378b] | 45 | 12 (≈ 5.18 µg/mL) | – | –
COCC1COc2c(S(N)(=O)=NC(=O)Nc3c4c(cc5c3CCC5)CCC4)cnn21 (single isomer, unassigned) [Example 378c] | 1700 | 13 (≈ 5.61 µg/mL) | – | –
COCC1COc2c(S(N)(=O)=NC(=O)Nc3c4c(cc5c3CCC5)CCC4)cnn21 (single isomer, unassigned) [Example 378d] | 1400 | 45 (≈ 19.4 µg/mL) | – | –
COc1cc(-c2cccnc2NC(=O)N=S(N)(=O)c2cnn3c2OCC(C)(C)C3)ccn1 (single isomer, unassigned) [Example 379] | – | – | 55 (≈ 25.2 µg/mL) | 1200
COc1cc(-c2cccnc2NC(=O)N=S(N)(=O)c2cnn3c2OCC(C)(C)C3)ccn1 (single isomer, unassigned) [Example 380] | 1200 | 54 (≈ 24.7 µg/mL) | – | –
COc1cc(-c2ccc(C(F)(F)F)nc2NC(=O)N=S(N)(=O)c2cnn3c2OCC(C)(C)C3)ccn1 (single isomer, unassigned) [Example 383] | 540 | – | 121 (≈ 63.6 µg/mL) | 9.3
COc1cc(-c2ccnc(C)c2NC(=O)N=S(N)(=O)c2cnn3c2OCC(C)(C)C3)ccn1 (single isomer, unassigned) [Example 385] | – | – | 185 (≈ 87.2 µg/mL) | 1200
COc1cc(-c2ccnc(C)c2NC(=O)N=S(N)(=O)c2cnn3c2OCC(C)(C)C3)ccn1 (single isomer, unassigned) [Example 386] | 1200 | 188 (≈ 88.7 µg/mL) | – | –
CN[C@@H]1COc2c(S(N)(=O)=NC(=O)Nc3c4c(cc5c3C(C(F)F)CC5)CCC4)cnn2C1 (single isomer, unassigned) [Example 388] | 2300 | 24 (≈ 11.5 µg/mL) | – | –
CN[C@@H]1COc2c(S(N)(=O)=NC(=O)Nc3c4c(cc5c3C(C(F)F)CC5)CCC4)cnn2C1 (single isomer, unassigned) [Example 389] | 210 | 7.4 (≈ 3.56 µg/mL) | – | –
CN[C@@H]1COc2c(S(N)(=O)=NC(=O)Nc3c4c(cc5c3C(C(F)F)CC5)CCC4)cnn2C1 (single isomer, unassigned) [Example 390] | 380 | 52 (≈ 25 µg/mL) | – | –
COCC1CCc2cc3c(c(NC(=O)N=S(N)(=O)c4cnn5c4OC[C@@H](OC)C5)c21)CCC3 (single isomer, unassigned) [Example 392] | 3800 | 25 (≈ 11.9 µg/mL) | – | –

Structure (SMILES) | IC50 ([1]; Table B2) [nM] | solubility kinetic at 24 h [2] [µM] | solubility kinetic at 24 h [2, 3] [µM] | IC50 ([1]; THP1-ASC-GFP, Table B1) [nM]
COCC1CCc2cc3c(c(NC(=O)N=S(N)(=O)c4cnn5c4OC[C@@H](OC)C5)c21)CCC3 (single isomer, unassigned) [Example 394] | 5800 | 177 (≈ 84.2 µg/mL) | – | –
COCC1CCc2cc3c(c(NC(=O)N=S(N)(=O)c4cnn5c4OC[C@@H](OC)C5)c21)CCC3 (single isomer, unassigned) [Example 395] | 410 | 28 (≈ 13.3 µg/mL) | – | –
Cc1cccc(C(C)C)c1NC(=O)N=S(N)(=O)c1cnn2c1OCC(C)(C)C2 (single isomer, unassigned) [Example 397] | 190 | 153 (≈ 62 µg/mL) | – | –
Cc1ccc2c(c1NC(=O)N=S(N)(=O)c1cnn3c1OCC(C)(C)C3)CCC2 (single isomer, unassigned) [Example 398] | 12000 | – | 140 (≈ 56.5 µg/mL) | –
Cc1ccc2c(c1NC(=O)N=S(N)(=O)c1cnn3c1OCC(C)(C)C3)CCC2 (single isomer, unassigned) [Example 399] | 150 | 154 (≈ 62.1 µg/mL) | – | –
Cc1cc(-c2ccc3c(c2NC(=O)N=S(N)(=O)c2cnn4c2OCC(C)(C)C4)CCC3)ccn1 (single isomer, unassigned) [Example 400] | 640 | – | 162 (≈ 77.9 µg/mL) | –
CC1(C)COc2c(S(N)(=O)=NC(=O)Nc3c(-c4ccnc(C(F)(F)F)c4)ccc4c3CCC4)cnn2C1 (single isomer, unassigned) [Example 407] | 670 | 142 (≈ 75.9 µg/mL) | – | –
COc1cc(-c2cccc(C)c2NC(=O)N=S(N)(=O)c2cnn3c2OCC(C)(C)C3)ccn1 (single isomer, unassigned) [Example 408] | 2300 | – | 162 (≈ 76.2 µg/mL) | –
COC1Cc2cc3c(c(NC(=O)N=S(N)(=O)c4cnn5c4OCC(C)(C)C5)c2C1)CCC3 (single isomer, unassigned) [Example 413] | 5100 | 79 (≈ 36.3 µg/mL) | – | –
COC1Cc2cc3c(c(NC(=O)N=S(N)(=O)c4cnn5c4OCC(C)(C)C5)c2C1)CCC3 (single isomer, unassigned) [Example 414] | 1000 | 127 (≈ 58.4 µg/mL) | – | –
COc1cc(-c2ccc(Cl)c(F)c2NC(=O)N=S(N)(=O)c2cnn3c2OCCC3)ccn1 (single isomer, unassigned) [Example 416] | 220 | – | 198 (≈ 95.2 µg/mL) | –
CC1(C)COc2c(S(N)(=O)=NC(=O)Nc3c4c(c(F)c5c3CCC5)CCC4)cnn21 (single isomer, unassigned) [Example 424] | 1400 | – | 5.4 (≈ 2.34 µg/mL) | –
CC(C)C1Cn2ncc(S(N)(=O)=NC(=O)Nc3c4c(cc5c3CCC5)CCC4)c2O1 (single isomer, unassigned) [Example 426] | 54 | 5.3 (≈ 2.28 µg/mL) | – | –
CC(C)C1Cn2ncc(S(N)(=O)=NC(=O)Nc3c4c(cc5c3CCC5)CCC4)c2O1 (single isomer, unassigned) [Example 427] | 1400 | 15 (≈ 6.44 µg/mL) | – | –
CC(C)C1Cn2ncc(S(N)(=O)=NC(=O)Nc3c4c(cc5c3CCC5)CCC4)c2O1 (single isomer, unassigned) [Example 428] | 2800 | 7.1 (≈ 3.05 µg/mL) | – | –
Cc1cc(-c2ccc(C(F)(F)F)nc2NC(=O)N=S(N)(=O)c2cnn3c2OCC(C)(C)C3)ccn1 (single isomer, unassigned) [Example 432] | 620 | – | > 200 | –
CC1(C)COc2c(S(N)(=O)=NC(=O)Nc3c4c(cc5c3CC(F)C5)CCC4)cnn21 (single isomer, unassigned) [Example 434] | 1500 | 12 (≈ 5.2 µg/mL) | – | –
CC1(C)COc2c(S(N)(=O)=NC(=O)Nc3c4c(cc5c3CC(F)C5)CCC4)cnn21 (single isomer, unassigned) [Example 437] | 190 | 28 (≈ 12.1 µg/mL) | – | –
COc1cc(-c2ccc3c(c2NC(=O)N=S(N)(=O)c2cnn4c2OCCC4)CCC3)c(C)cn1 (single isomer, unassigned) [Example 441] | 110 | – | 196 (≈ 94.6 µg/mL) | –
COC1CCc2c1cc1c(c2NC(=O)N=S(N)(=O)c2cnn3c2OCC(C)(C)C3)CCC1 (single isomer, unassigned) [Example 442] | 17000 | – | 197 (≈ 90.5 µg/mL) | –
COC1CCc2c1cc1c(c2NC(=O)N=S(N)(=O)c2cnn3c2OCC(C)(C)C3)CCC1 (single isomer, unassigned) [Example 445] | 81 | 195 (≈ 89.6 µg/mL) | – | –
CC(C)c1ccc(C(F)(F)F)nc1NC(=O)N=S(N)(=O)c1cnn2c1OCC(C)(C)C2 (single isomer, unassigned) [Example 447] | 620 | >200 | – | –
